# Laboratory results as given in US20210369661A1, “METHODS AND COMPOSITIONS FOR TREATING AND RECOVERING FROM VIRAL INFECTIONS” (IMMUNOFLEX THERAPEUTICS INC., priority 2020, published 2021).
# “And” between values parts separate entries of the source, which are not always exact repeats. Equal entries are not always repeated. “Also recorded” adds a separate entry of the source.
# Assays:
# influenza virus = conditions: combination with ribavirin vs ribavirin alone; cited from earlier work
# [1] = cited from earlier work
# [2] = system: A/H1N1 Singapore 6/86 influenza virus; conditions: cited from earlier work
# human PBMCs = conditions: NAC 1 mM, in vitro; cited from earlier work
# [3] = system: influenza A (H5N1) viruses; conditions: lung epithelial cells; cited from earlier work
# HIV [4] = conditions: cited from earlier work
# HIV [5] = conditions: 293.27.2, H9, MOLT-4 cells, PBMCs; with or without TNFα / PMA stimulation; cited from earlier work
# [6] = system: TCR β chain immune repertoire; experiment: T cell receptor β chain immune repertoire diversity index after a controlled dose (iRepertoire sequencing of blood); type: in vivo, human; conditions: for Total number of clonotypes: within 24-48 hr of applied dose
# [7] = system: A/swine/HeBei/012/2008 (H9N2) viruses; conditions: intra-nasal inoculation with or without NAC; cited from earlier work
# HCV infected cells = conditions: in vitro; cited from earlier work
# CB1 and CB2 = conditions: cited from earlier work; for Agonism or antagonism against CB1 and CB2: up to 20 μM
# GPR55 = GPR55 (Homo sapiens, UniProt Q9Y2T6); conditions: cited from earlier work
# Chain of GPR55 (Q9Y2T6 whole entry, species assumed): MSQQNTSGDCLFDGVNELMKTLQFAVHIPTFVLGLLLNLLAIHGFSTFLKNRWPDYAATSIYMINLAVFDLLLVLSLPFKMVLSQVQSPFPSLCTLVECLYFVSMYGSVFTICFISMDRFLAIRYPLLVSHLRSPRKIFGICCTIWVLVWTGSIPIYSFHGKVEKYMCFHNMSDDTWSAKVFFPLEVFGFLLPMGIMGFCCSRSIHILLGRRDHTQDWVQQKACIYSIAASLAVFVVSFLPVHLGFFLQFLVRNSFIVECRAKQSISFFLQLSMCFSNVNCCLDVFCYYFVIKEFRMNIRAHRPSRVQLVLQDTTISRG
# CB1 receptor = CB1 receptor (Homo sapiens, UniProt P21554); conditions: read-out: I value at the CB1 receptor; cited from earlier work
# Chain of CB1 receptor (P21554 whole entry): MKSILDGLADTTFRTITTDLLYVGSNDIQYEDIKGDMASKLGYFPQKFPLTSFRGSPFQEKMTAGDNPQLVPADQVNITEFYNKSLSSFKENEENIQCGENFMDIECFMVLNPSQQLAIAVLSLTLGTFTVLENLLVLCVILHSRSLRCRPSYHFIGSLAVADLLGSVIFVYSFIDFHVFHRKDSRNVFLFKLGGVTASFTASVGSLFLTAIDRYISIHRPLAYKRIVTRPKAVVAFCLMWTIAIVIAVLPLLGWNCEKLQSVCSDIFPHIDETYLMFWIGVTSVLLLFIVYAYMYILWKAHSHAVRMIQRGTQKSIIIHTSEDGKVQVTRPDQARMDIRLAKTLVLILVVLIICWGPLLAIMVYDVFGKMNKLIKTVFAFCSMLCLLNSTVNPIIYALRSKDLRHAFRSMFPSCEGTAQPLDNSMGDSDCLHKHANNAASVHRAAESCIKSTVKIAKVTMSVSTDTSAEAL
# [8] = Intoxication after topical application of THC salve; conditions: 10 mg THC, application for three days
# [9] = target: monoacylglycerol lipase (MAGL); conditions: reversible mechanism; read-out: IC50, inhibition of MAGL; cited from earlier work
# [10] = target: T1, fatty acid amide hydrolase (FAAH) (Rattus norvegicus, UniProt P97612); conditions: rat brain homogenates; read-out: IC50, inhibition of anandamide hydrolysis; cited from earlier work
# T1 construct: from tissue; host or cells: rat brain homogenates
# T1 sequence (P97612 1-579): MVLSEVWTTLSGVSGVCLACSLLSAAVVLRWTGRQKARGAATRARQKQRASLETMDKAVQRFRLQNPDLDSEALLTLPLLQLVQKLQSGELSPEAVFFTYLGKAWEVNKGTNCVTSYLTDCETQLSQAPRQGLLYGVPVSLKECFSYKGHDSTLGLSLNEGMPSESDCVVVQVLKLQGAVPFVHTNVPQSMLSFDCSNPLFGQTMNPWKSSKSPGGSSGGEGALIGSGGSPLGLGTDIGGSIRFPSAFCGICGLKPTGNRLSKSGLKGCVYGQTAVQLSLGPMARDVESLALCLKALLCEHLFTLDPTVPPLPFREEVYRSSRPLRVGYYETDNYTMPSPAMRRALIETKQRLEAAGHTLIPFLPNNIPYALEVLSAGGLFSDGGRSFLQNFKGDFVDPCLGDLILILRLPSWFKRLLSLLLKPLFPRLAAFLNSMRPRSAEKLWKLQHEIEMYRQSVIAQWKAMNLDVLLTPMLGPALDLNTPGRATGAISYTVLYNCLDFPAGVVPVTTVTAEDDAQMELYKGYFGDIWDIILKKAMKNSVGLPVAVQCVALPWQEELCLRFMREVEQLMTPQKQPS
# CB2 receptor = CB2 receptor (Homo sapiens, UniProt P34972); conditions: nM concentrations; cited from earlier work
# Chain of CB2 receptor (P34972 whole entry): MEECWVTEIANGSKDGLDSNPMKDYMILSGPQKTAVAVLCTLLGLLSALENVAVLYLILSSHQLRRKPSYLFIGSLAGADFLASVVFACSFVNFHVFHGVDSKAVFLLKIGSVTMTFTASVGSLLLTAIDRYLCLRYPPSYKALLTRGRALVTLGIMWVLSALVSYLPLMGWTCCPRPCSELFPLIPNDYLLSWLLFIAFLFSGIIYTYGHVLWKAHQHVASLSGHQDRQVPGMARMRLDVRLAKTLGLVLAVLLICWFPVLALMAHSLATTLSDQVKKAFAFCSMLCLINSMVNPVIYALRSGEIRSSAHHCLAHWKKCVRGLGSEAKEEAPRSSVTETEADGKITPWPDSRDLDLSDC
# [11] = system: influenza virus strain A/PR8(H1N1); conditions: lethal influenza infection in mice; cited from earlier work
smiles,measurement,setting,value
NC(=O)c1ncn([C@@H]2O[C@H](CO)[C@@H](O)[C@H]2O)n1 [ribavirin],Survival rate,influenza virus,58%
CCCCCc1cc(O)c2c(c1)OC(C)(C)[C@@H]1CCC(C)=C[C@@H]21 [Dronabinol],Amount reaching the blood stream by absorption through the digestive system,[1]; oral,10-20 % of the administered dose
same,Duration of peak therapeutic effect,[1]; post administration,2 to 4 h
"CC(=O)N[C@@H](CS)C(=O)O [NAC, N-acetylcysteine]",Tolerability,[2]; NAC 600 mg twice daily for 6 months,well tolerated
same,Virus-infected subjects who developed a symptomatic form,"[2]; NAC effervescent tablets 600 mg twice daily for 6 months, 79% in the placebo group",25%
same,Influenza virus specific T lymphocyte proliferation and IFNγ production,human PBMCs,increase
same,Production of pro-inflammatory molecules,[3],inhibit
same,"Survival, risk ratio","HIV [4]; 73 subjects with survival data, P=0.0003, median NAC dose 5.3 g/day, median 24 weeks",0.3 (0.1-0.6)
same,Viral load,"HIV [4]; NAC treatment during the trial, P>0.1",did not result in a significant change
same,CD4 T cell count,"HIV [4]; NAC treatment during the trial, P>0.9",did not result in a significant change
same,Whole blood GSH and T cell GSH,HIV [4]; NAC treatment for 8 weeks,replenished
same,HIV replication,HIV [5],inhibit HIV replication; also recorded: blocked stimulation of HIV replication
same,"Diversity index, Dosed","[6]; NAC single 1200 mg dose (2×600 mg effervescent tablets), 24 hours post dose",20.0 and 15.9
same,"Diversity index, Fold change","[6]; NAC single 1200 mg dose, 24 hours vs baseline",1.6 fold and 1.5 fold
same,Time until immune diversity returns to baseline,[6]; after a single dose,24 h
same,Total number of clonotypes,[6],increases
same,"Pulmonary inflammation, edema, myeloperoxidase, cells and cytokines in BAL fluid",[7],reduced
"C=C(C)[C@@H]1CCC(C)=C[C@H]1c1c(O)cc(CCCCC)cc1O [CBD, cannabidiol]",Cell death of HCV infected cells,HCV infected cells,approximately 85%
Cc1ccc(C2(C(=O)N3CCC(n4nc(-c5ccccc5)oc4=O)CC3)CC2)cc1 [ML191],Agonism or antagonism against CB1 and CB2,CB1 and CB2,no observed agonism or antagonism
Cc1cccc(N2CCN(C(=O)c3cc(S(=O)(=O)N(C)C)ccc3N3CCCC3)CC2)c1C [ML184],Potency for GPR55,GPR55,263 nM
same,Selectivity against CB1 and CB2,CB1 and CB2,57 fold
C=C[C@H](O)C#CC#CC/C=C\CCCCCCC [falcarinol],Ki,CB1 receptor,< 1000 nM
Cc1nc(N2CCN(C(=O)c3ccco3)CC2)c2c3c(sc2n1)CCCC3 [ML192],Agonism or antagonism against CB1 and CB2,CB1 and CB2,no observed agonism or antagonism
"CCCCCc1cc(O)c2c(c1)OC(C)(C)[C@@H]1CCC(C)=C[C@@H]21 [THC, Δ^9-tetrahydrocannabinol]",Intoxication characteristic of THC,[8],without intoxication
same,Total number of clonotypes,[6],rapidly increases
COc1ccc(-c2csc(NC(=O)CSc3nnc4c(C)cc5ccccc5n34)n2)cc1 [ML185],Potency for GPR55,GPR55,658 nM
same,Selectivity against CB1 and CB2,CB1 and CB2,greater than 48 fold
Cc1cc(C)c2nc(-c3ccccn3)cc(C(=O)Nc3ccc(S(=O)(=O)Nc4onc(C)c4C)cc3)c2c1 [ML193],Agonism or antagonism against CB1 and CB2,CB1 and CB2,no observed agonism or antagonism
CC(C)=CCC[C@@H](C)[C@@H]1CC[C@]2(C)C3=C(CC[C@@]12C)[C@@]1(C)CC[C@H](O)C(C)(C)[C@@H]1CC3 [euphol],IC50,[9],315 nM
COc1ccc(S(=O)(=O)N2CCOCC2)cc1NC(=O)c1cc2c(s1)CCCC2 [ML186],Potency for GPR55,GPR55,305 nM
same,Selectivity against CB1 and CB2,CB1 and CB2,greater than 100 fold
O=c1cc(-c2ccccc2)oc2cc(O)ccc12 [7-hydroxyflavone],IC50,[10],< 1000 nM
C=C1CC/C=C(\C)CC[C@@H]2[C@@H]1CC2(C)C [β-caryophyllene],Functional activity at the CB2 receptor,CB2 receptor,full agonist
CCOC(=O)C1=C[C@@H](OC(CC)CC)[C@H](NC(C)=O)[C@@H](N)C1 [oseltamivir],Survival rate,[11],60%
